Where “and” joins values, the source holds several entries; their conditions need not be identical. Equal values may be shown once.
O=C(C(F)(F)C(F)(F)F)C(F)(C(F)(F)F)C(F)(F)F [dodecafluoro-2-methylpentan-3-one]
Settings	thermal conductivity
359.78 K, 24942 kPa, Liquid, transient hot wire	0.06009 W/m/K
359.79 K, 91 kPa, Gas, transient hot wire	0.01762 W/m/K
359.79 K, 92 kPa, Gas, transient hot wire	0.01704 W/m/K
359.83 K, 255 kPa, Gas, transient hot wire	0.01639 W/m/K and 0.01638 W/m/K
359.85 K, 7097 kPa, Liquid, transient hot wire	0.05177 W/m/K
359.85 K, 7099 kPa, Liquid, transient hot wire	0.05171 W/m/K
359.89 K, 18005 kPa, Liquid, transient hot wire	0.05715 W/m/K
359.9 K, 18006 kPa, Liquid, transient hot wire	0.05719 W/m/K
359.92 K, 186 kPa, Gas, transient hot wire	0.01654 W/m/K and 0.01651 W/m/K
359.92 K, 3418 kPa, Liquid, transient hot wire	0.04946 W/m/K
359.93 K, 3420 kPa, Liquid, transient hot wire	0.04957 W/m/K
359.99 K, 11963 kPa, Liquid, transient hot wire	0.05432 W/m/K
360 K, 26 kPa, Gas, transient hot wire	0.01679 W/m/K
360.01 K, 26 kPa, Gas, transient hot wire	0.01682 W/m/K
360.01 K, 11965 kPa, Liquid, transient hot wire	0.05404 W/m/K
360.03 K, 353 kPa, Liquid, transient hot wire	0.0473 W/m/K
360.04 K, 353 kPa, Liquid, transient hot wire	0.0473 W/m/K
360.05 K, 352 kPa, Liquid, transient hot wire	0.04729 W/m/K and 0.0475 W/m/K
360.09 K, 92 kPa, Gas, transient hot wire	0.01711 W/m/K and 0.01617 W/m/K
360.11 K, 7096 kPa, Liquid, transient hot wire	0.05168 W/m/K
360.11 K, 7097 kPa, Liquid, transient hot wire	0.0517 W/m/K
360.19 K, 3417 kPa, Liquid, transient hot wire	0.04945 W/m/K
360.19 K, 3421 kPa, Liquid, transient hot wire	0.04947 W/m/K
360.32 K, 353 kPa, Liquid, transient hot wire	0.0473 W/m/K
360.33 K, 352 kPa, Liquid, transient hot wire	0.0473 W/m/K and 0.04729 W/m/K
360.33 K, 353 kPa, Liquid, transient hot wire	0.04728 W/m/K
360.34 K, 26 kPa, Gas, transient hot wire	0.01682 W/m/K and 0.01675 W/m/K
373.92 K, 307 kPa, Gas, hot wire	0.01816 W/m/K
373.92 K, 308 kPa, Gas, hot wire	0.01812 W/m/K
373.97 K, 206 kPa, Gas, hot wire	0.01727 W/m/K
373.97 K, 207 kPa, Gas, hot wire	0.0173 W/m/K
374 K, 102 kPa, Gas, hot wire	0.01713 W/m/K and 0.01722 W/m/K
374.03 K, 306 kPa, Gas, hot wire	0.01829 W/m/K and 0.01823 W/m/K
374.08 K, 25 kPa, Gas, hot wire	0.01652 W/m/K and 0.01647 W/m/K
374.1 K, 205 kPa, Gas, hot wire	0.01731 W/m/K
374.1 K, 206 kPa, Gas, hot wire	0.01733 W/m/K
374.14 K, 102 kPa, Gas, hot wire	0.01694 W/m/K and 0.01695 W/m/K
374.15 K, 305 kPa, Gas, hot wire	0.01837 W/m/K
374.17 K, 305 kPa, Gas, hot wire	0.01816 W/m/K
374.21 K, 25 kPa, Gas, hot wire	0.01648 W/m/K
374.22 K, 25 kPa, Gas, hot wire	0.01645 W/m/K
374.23 K, 205 kPa, Gas, hot wire	0.0174 W/m/K and 0.01741 W/m/K
374.28 K, 102 kPa, Gas, hot wire	0.01696 W/m/K
374.28 K, 304 kPa, Gas, hot wire	0.01841 W/m/K
374.28 K, 305 kPa, Gas, hot wire	0.01852 W/m/K
374.29 K, 102 kPa, Gas, hot wire	0.01693 W/m/K
374.35 K, 25 kPa, Gas, hot wire	0.01656 W/m/K and 0.01653 W/m/K
374.36 K, 203 kPa, Gas, hot wire	0.01755 W/m/K
374.37 K, 204 kPa, Gas, hot wire	0.01751 W/m/K
374.42 K, 102 kPa, Gas, hot wire	0.01695 W/m/K
374.42 K, 303 kPa, Gas, hot wire	0.01848 W/m/K and 0.01842 W/m/K
374.43 K, 102 kPa, Gas, hot wire	0.01693 W/m/K
374.49 K, 376 kPa, Gas, transient hot wire	0.01734 W/m/K
374.5 K, 25 kPa, Gas, hot wire	0.01656 W/m/K and 0.01659 W/m/K
374.5 K, 377 kPa, Gas, transient hot wire	0.01734 W/m/K
374.51 K, 202 kPa, Gas, hot wire	0.0176 W/m/K
374.51 K, 203 kPa, Gas, hot wire	0.01762 W/m/K
374.52 K, 308 kPa, Gas, transient hot wire	0.01738 W/m/K
374.53 K, 307 kPa, Gas, transient hot wire	0.01737 W/m/K
374.58 K, 101 kPa, Gas, hot wire	0.01698 W/m/K
374.59 K, 101 kPa, Gas, hot wire	0.01691 W/m/K
374.59 K, 207 kPa, Gas, transient hot wire	0.01758 W/m/K
374.6 K, 206 kPa, Gas, transient hot wire	0.01761 W/m/K
374.66 K, 25 kPa, Gas, hot wire	0.0166 W/m/K and 0.01657 W/m/K
374.69 K, 376 kPa, Gas, transient hot wire	0.01733 W/m/K
374.7 K, 376 kPa, Gas, transient hot wire	0.01734 W/m/K
374.74 K, 306 kPa, Gas, transient hot wire	0.01741 W/m/K
374.81 K, 206 kPa, Gas, transient hot wire	0.01763 W/m/K and 0.01767 W/m/K
374.92 K, 374 kPa, Gas, transient hot wire	0.01739 W/m/K
374.92 K, 375 kPa, Gas, transient hot wire	0.01742 W/m/K
374.97 K, 305 kPa, Gas, transient hot wire	0.0175 W/m/K
374.97 K, 306 kPa, Gas, transient hot wire	0.01752 W/m/K
375.05 K, 205 kPa, Gas, transient hot wire	0.01769 W/m/K
375.15 K, 373 kPa, Gas, transient hot wire	0.01743 W/m/K
375.15 K, 374 kPa, Gas, transient hot wire	0.01735 W/m/K
375.2 K, 304 kPa, Gas, transient hot wire	0.01738 W/m/K
375.21 K, 304 kPa, Gas, transient hot wire	0.01741 W/m/K
375.3 K, 204 kPa, Gas, transient hot wire	0.01791 W/m/K and 0.0176 W/m/K
375.4 K, 372 kPa, Gas, transient hot wire	0.01754 W/m/K
375.4 K, 373 kPa, Gas, transient hot wire	0.01755 W/m/K
375.47 K, 303 kPa, Gas, transient hot wire	0.01756 W/m/K
375.48 K, 303 kPa, Gas, transient hot wire	0.01757 W/m/K
375.57 K, 202 kPa, Gas, transient hot wire	0.01755 W/m/K

From the NIST ThermoML archive (doi:10.1021/acs.jced.8b00132)
